{
  "source": "paper PMC5096734",
  "about": "(Chembiochem : a European journal of chemical biology, 2014)",
  "test_in_all_cases": "fluorogenic hydrolysis, Michaelis-Menten",
  "key": {"[1]": {"test_system": "C. antarctica lipase", "type": "biochemical, Moesziomyces antarcticus", "conditions": "enzyme 10 μg/mL"}, "[2]": {"test_system": "PLE", "type": "biochemical, Sus scrofa"}, "[3]": {"test_system": "B. subtilis esterase", "type": "biochemical, Bacillus subtilis", "conditions": "enzyme 0.5 μg/mL"}, "[4]": {"molecular_target": "T1, M. miehei lipase (Rhizomucor miehei, UniProt P19515)", "T1 sequence (P19515 95-363)": "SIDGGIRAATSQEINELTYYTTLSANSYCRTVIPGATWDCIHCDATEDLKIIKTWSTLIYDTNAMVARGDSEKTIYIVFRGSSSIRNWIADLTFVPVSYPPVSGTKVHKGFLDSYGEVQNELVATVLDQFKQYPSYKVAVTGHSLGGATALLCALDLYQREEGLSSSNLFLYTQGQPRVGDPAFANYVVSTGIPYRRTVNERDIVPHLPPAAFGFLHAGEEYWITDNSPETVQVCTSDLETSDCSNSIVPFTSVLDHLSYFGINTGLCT", "type": "biochemical", "conditions": "enzyme 10 μg/mL"}},
  "data": [
    {"molecule": "CC(=O)OCOc1ccc2nc3ccc(=O)cc-3oc2c1", "note": "[Res-AME]", "values": [
      {"measurement": "Km", "setting": "[1]", "result": "6.8 ± 0.4", "unit": "µM"},
      {"measurement": "Km", "setting": "[2]; enzyme 0.050 μg/mL", "result": "4.9 ± 0.7", "unit": "µM"},
      {"measurement": "Km", "setting": "[3]", "result": "19 ± 2", "unit": "µM"}
    ]},
    {"molecule": "DDAO-AME 1", "values": [
      {"measurement": "Km", "setting": "[1]", "result": "9.5 ± 1.1", "unit": "µM"},
      {"measurement": "Km", "setting": "[4]", "result": "4.4 ± 0.7", "unit": "µM"},
      {"measurement": "Km", "setting": "[2]; enzyme 0.5 μg/mL", "result": "7.5 ± 0.8", "unit": "µM"},
      {"measurement": "Km", "setting": "[3]", "result": "6.7 ± 0.5", "unit": "µM"}
    ]}
  ]
}
